Where two headings read alike, the source gives them in different places.

Test [1] relates to normolipidaemic rats. Put plainly: Effects on serum lipids in vivo, rat Model A (Oxoid diet). To be noted: po, 168 h, compound at 0.1% of the diet (approximately 100 mg/kg/day), 7 days. On the set-up: species or system Male Sprague-Dawley rats. The procedure:
(§1) The compounds of the Examples above were tested for their effects on serum lipids in vivo using normolipidaemic rats.
(§2) Male Sprague-Dawley rats, 80-100 g, were randomised into groups of 8 after 5-7 days of feeding on the diet. The compounds were fed to the rats at a concentration of 0.1% of the powered diet (i.e. approximately 100 mg/kg/day), unless otherwise stated. The control groups were fed only the diet. At the end of the experiment, i.e. after 7 days, the rats were killed and their individual total serum cholesterol and triglyceride measured in mg/100 ml using a Technicon Autoanalyser. The high density lipoprotein (HDL)-cholesterol fraction, which was obtained from the serum by precipitation with heparin-manganous chloride, was only measured on "pooled" samples from each group.
(§3) The results are shown in Table 1 below. • ^+ Model A used an Oxoid diet. • Model B used a semi-synthetic diet rich in sucrose and cholesterol

For test [2], the system named is normolipidaemic rats. The experiment in a line: Effects on serum lipids in vivo, rat Model B (semi-synthetic diet rich in sucrose and cholesterol). On the set-up: species or system Male Sprague-Dawley rats. To be noted: compound at 0.1% of the diet (approximately 100 mg/kg/day), 7 days, * = significant at p<0.05. The protocol:
as §1, §2, §3

The mark [3] stands for this setting: * = significant at p<0.05, read-out: Percentage difference from control values in Total Serum triglyceride.
Where [4] appears, read: * = significant at p<0.05, read-out: Percentage difference from control values in Total Serum cholesterol.

`O=C(O)[C@H](Cc1ccc(O)cc1)NCc1ccc(Cl)cc1` [Example 17, N-4-chlorobenzyl-tyrosine]: the change in vivo at 100 mg/kg/day with normolipidaemic rats [1] (setting [3]) was -18%. Turning to `O=C(O)C(CCc1ccccc1)NCc1ccc(Cl)cc1` (racemic) [Example 15, (DL)-2-(4-Chlorobenzylamino)-4-phenylbutyric acid], the change in vivo at 100 mg/kg/day is 68% with normolipidaemic rats [1] (setting [4]) and -11% in the test with normolipidaemic rats [1] (setting [3]). Regarding `O=C(O)[C@H](Cc1ccccc1)NCc1ccc2c(c1)OCO2` [Example 1, N-(3,4-methylenedioxybenzyl)-L-phenylalanine], the change in vivo at 100 mg/kg/day in the test on normolipidaemic rats [1] (setting [3]) was -31%. Consider `O=C(O)[C@H](Cc1ccccc1)NCc1ccc(Br)cc1` [Example 4, N-(4-Bromobenzyl)-L-phenylalanine], for which the change in vivo at 100 mg/kg/day in the test on normolipidaemic rats [1] (setting [4]) was 43%; with normolipidaemic rats [1] (setting [3]) it was -40%.

For `O=C(O)[C@H](Cc1ccccc1)NCc1cccc(C(F)(F)F)c1` [Example 5, N-(3-Trifluoromethylbenzyl)-L-phenylalanine], the change in vivo at 100 mg/kg/day was 47% in the test on normolipidaemic rats [1] (setting [4]) and -41% in the test with normolipidaemic rats [1] (setting [3]).

With `O=C(O)C(Cc1ccc(Cl)cc1)NCc1ccc(Cl)cc1` (racemic) [Example 7, N-(4-Chlorobenzyl)-DL-4-chlorophenylalanine], the change in vivo at 100 mg/kg/day with normolipidaemic rats [1] (setting [4]) was 56%; in the test with normolipidaemic rats [1] (setting [3]) it was -50%. `O=C(O)C(Cc1ccncc1)NCc1ccc(Cl)cc1` (racemic) [Example 12, DL-2-(4-Chlorobenzylamino)-3-(4-pyridyl)-propionic acid]: in the test with normolipidaemic rats [2], the “Percentage difference from control values in Total Serum cholesterol” value is listed as -10% and the “Percentage difference from control values in Total Serum triglyceride” value is listed as -10%.

For `COC(=O)[C@H](Cc1ccccc1)NCc1ccc(Cl)cc1` [Example 18, N-(4-chlorobenzyl)-L-phenylalanine methyl ester], the change in vivo at 100 mg/kg/day in the test on normolipidaemic rats [1] (setting [4]) was 25%; in the test on normolipidaemic rats [1] (setting [3]), -43%. As for `O=C(O)[C@@H](Cc1ccccc1)NCc1ccc(Cl)cc1` [Example 3, N-(4-Chlorobenzyl)-D-phenylalanine], in the test on normolipidaemic rats [2], the “Percentage difference from control values in Total Serum cholesterol” value is on record as “+49^* %” and the “Percentage difference from control values in Total Serum triglyceride” value is -67^* %. On to `O=C(O)C(Cc1c[nH]c2ccccc12)NCc1ccc(Cl)cc1` (racemic) [Example 14, N-4-Chlorobenzyl-DL-tryptophan], for which the change in vivo at 100 mg/kg/day in the test with normolipidaemic rats [1] (setting [4]) was 36%. In the case of `O=C(O)[C@H](Cc1ccccc1)NCc1ccc(Cl)cc1` [Example 2, N-(4-chlorobenzyl)-L-phenylalanine], the change in vivo at 100 mg/kg/day with normolipidaemic rats [1] (setting [4]) came to 31%. The change in vivo at 100 mg/kg/day in the test with normolipidaemic rats [1] (setting [3]) is -40%. For the same compound, in the test on normolipidaemic rats [2], the “Percentage difference from control values in Total Serum cholesterol” value is recorded as “+14%” and the “Percentage difference from control values in Total Serum triglyceride” value is recorded as -44^* %. For the compound `O=C(O)[C@H](CSCc1ccccc1)NCc1ccc(Cl)cc1` [Example 8, N-(4-Chlorobenzyl)-S-benzyl-L-cysteine], the change in vivo at 100 mg/kg/day with normolipidaemic rats [1] (setting [4]) was 52%; in the test with normolipidaemic rats [1] (setting [3]), -35%. Take `O=C(O)C(Cc1ccccn1)NCc1ccc(Cl)cc1` (racemic) [Example 11, DL-2-(4-Chlorobenzylamino)-3-(2-pyridyl)-propionic acid]: in the test with normolipidaemic rats [2], the “Percentage difference from control values in Total Serum cholesterol” value was “+27^* %” and the “Percentage difference from control values in Total Serum triglyceride” value is recorded as “+27%”.
